Measurements published in US10526343B2, “Heterocyclic systems and pharmaceutical applications thereof” (University of Sharjah, priority 2018, dated 2020).
In brackets after ≈: the same amount, converted by molar mass.

What was measured:
MRSA-1 = test: Time-kill study; assay type: cell-based, Staphylococcus aureus
Description: Time-kill study: Compound 1o was tested for the time required to kill the bacterial strain MRSA-1. A time-kill assay was performed by the broth micro-dilution method in accordance with the CLSI guidelines. Inoculum suspensions with approximately 5×10^5 CFU/mL of exponentially growing bacterial cells were incubated in each well of a 96-well plate. […] Aliquots of 20 μL were removed from the inoculum culture after timed intervals of incubation (i.e. 0, 30 minutes, 1, 2, 4, 6, 8, and 24 hours), and serial 10-fold dilutions were prepared in 0.85% sodium chloride solution. Then, 10-100 μL of each dilution (as appropriate) were spread on the surface of Mueller-Hinton agar plates and incubated at 37° C. for 24 hours. Plate count technique was used to determine the number of viable cells for each time point. The experiments were performed in triplicate. Meropenem and ciprofloxacin were used as quality control antibiotics.

S. aureus (ATCC 25923) = test: MIC by broth microdilution; assay type: cell-based; conditions: Staphylococcus aureus, ATCC25923
Description: (§1) Bacteria of the genus Staphylococcus were selected for MIC investigation due to its clinical importance. Compounds showing activity against S. aureus (ATCC 25923) were tested against 10 multidrug-resistant strains of Staphylococcus species, including: clinical isolates methicillin-resistant Staphylococcus aureus (MRSA) strains MRSA-1, MRSA-2, and MRSA-3, and environmental isolates S. saprophyticus (strains UDH-1, UDH-2, UDH-3 and UDH-4), S. haemolyticus (strains UDH-6 and UDH-7), and S. epidermidis strain UDH-5.
(§2) A broth microdilution method was used to measure MIC according to the Clinical and Laboratory Standards Institute guidelines. Two-fold serial dilutions of the test compound (8 concentrations ranged between 100-0.78 μg/mL) were tested. Two reference antibiotics were used as quality controls (ciprofloxacin and amikacin). In each experiment, solvent (DMSO) was used as a negative control, un-treated control (composing of bacteria in Mueller-Hinton broth) was used as a growth control, blank (culture media alone) was used as sterility control. The 96-well microplate with the test compounds was incubated for 20 hours at 37° C. Turbidity in wells indicated bacterial growth. […] For the definite determination of MIC, CellTiter-Blue® Cell Viability Assay (Promega, USA) was used (as above). The MIC was defined as the lowest compound concentration that prevented the color change of the Cell Viability solution (absence of bacterial growth; thus, suspension remained blue in color). For the definite determination of MIC, CellTiter-Blue® Cell Viability Assay (Promega, USA) was used (as above). To each well of the 96-well microplate, 20 μL of the Cell Viability Assay solution was added to the overnight (20 hours culture) and incubated at 37° C. for 4 hours. After the end of the incubation, pink and blue colors were used to differentiate viable from dead bacterial suspensions, respectively. The MIC was defined as the lowest compound concentration that prevented the color change.

[1] = system: UDH-1 (environmental isolate, S. saprophyticus); test: MIC by broth microdilution; assay type: cell-based; conditions: Staphylococcus saprophyticus; environmental isolate
Description: as §1
(§3) All these strains were resistant to at least three antibiotics from different classes, as confirmed by a disk diffusion assay.
as §2

[2] = system: UDH-2 (environmental isolate, S. saprophyticus); test: MIC by broth microdilution; assay type: cell-based; conditions: Staphylococcus saprophyticus
Description: as §1, §3, §2

[3] = system: UDH-3 (environmental isolate, S. saprophyticus); test: MIC by broth microdilution; assay type: cell-based; conditions: Staphylococcus saprophyticus; environmental isolate
Description: as §1, §3, §2

[4] = system: UDH-4 (environmental isolate, S. saprophyticus); test: MIC by broth microdilution; assay type: cell-based; conditions: Staphylococcus saprophyticus
Description: as §1, §3, §2

[5] = system: UDH-5 (environmental isolate, S. epidermidis); test: MIC by broth microdilution; assay type: cell-based; conditions: Staphylococcus epidermidis
Description: as §1, §3, §2

[6] = system: UDH-6 (environmental isolate, S. haemolyticus); test: MIC by broth microdilution; assay type: cell-based; conditions: Staphylococcus haemolyticus; environmental isolate
Description: as §1, §3, §2

[7] = system: UDH-7 (environmental isolate, S. haemolyticus); test: MIC by broth microdilution; assay type: cell-based; conditions: Staphylococcus haemolyticus; environmental isolate
Description: as §1, §3, §2

[8] = system: Staphylococcus aureus (ATCC 25923); test: Cell viability assay (resazurin) screening for antibacterial activity; assay type: cell-based; design: key: Positive: A positive result indicates antibacterial activity expressed as growth inhibition; Negative: a negative result indicates no antibacterial activity expressed as bacterial growth at the tested concentration; conditions: single high concentration of 1 mg/mL
[9] = system: Enterococcus faecalis (ATCC 29212); test: as above; assay type: cell-based; design: key: Positive: A positive result indicates antibacterial activity expressed as growth inhibition; Negative: a negative result indicates no antibacterial activity expressed as bacterial growth at the tested concentration; conditions: single high concentration of 1 mg/mL
[10] = system: Bacillus subtilis (environmental isolate); test: as above; assay type: cell-based; design: key: Positive: A positive result indicates antibacterial activity expressed as growth inhibition; Negative: a negative result indicates no antibacterial activity expressed as bacterial growth at the tested concentration; conditions: single high concentration of 1 mg/mL
[11] = system: Escherichia coli (ATCC 25922); test: as above; assay type: cell-based; design: key: Positive: A positive result indicates antibacterial activity expressed as growth inhibition; Negative: a negative result indicates no antibacterial activity expressed as bacterial growth at the tested concentration; conditions: single high concentration of 1 mg/mL
[12] = system: Pseudomonas aeruginosa (ATCC 27853); test: as above; assay type: cell-based; design: key: Positive: A positive result indicates antibacterial activity expressed as growth inhibition; Negative: a negative result indicates no antibacterial activity expressed as bacterial growth at the tested concentration; conditions: single high concentration of 1 mg/mL
[13] = system: MRSA-1 (clinical isolate, methicillin-resistant Staphylococcus aureus); test: MIC by broth microdilution; assay type: cell-based; conditions: Staphylococcus aureus, MRSA; clinical isolate
Description: (§4) Bacteria of the genus Staphylococcus were selected for MIC investigation due to its clinical importance.
as §2, with “Two reference antibiotics were used as quality controls (ciprofloxacin and amikacin).” left out

[14] = system: MRSA-2 (clinical isolate, methicillin-resistant Staphylococcus aureus); test: MIC by broth microdilution; assay type: cell-based
Description: as §4
as §2, with “Two reference antibiotics were used as quality controls (ciprofloxacin and amikacin).” left out

[15] = system: MRSA-3 (clinical isolate, methicillin-resistant Staphylococcus aureus); test: MIC by broth microdilution; assay type: cell-based
Description: as §4
as §2, with “Two reference antibiotics were used as quality controls (ciprofloxacin and amikacin).” left out

Compound	MIC (S. aureus (ATCC 25923))	MIC [1]	MIC [2]	MIC [3]	MIC [4]	MIC [5]	MIC [6]	MIC [7]	other results
C[C@@H](O)[C@H]1C(=O)N2C(C(=O)O)=C(S[C@@H]3CN[C@H](C(=O)N(C)C)C3)[C@H](C)[C@H]12 [meropenem, reference compound]									time of exposure at which killing was achieved (MRSA-1; 8 μg/mL): 8 h; time of exposure at which killing was achieved (MRSA-1; 16 μg/mL): 6 h; time of exposure at which killing was achieved (MRSA-1; 2-4 μg/mL): 24 h; time of exposure at which killing was achieved (complete inhibition of bacterial growth) (MRSA-1; 32-64 μg/mL): 4 h
O=C(O)c1cn(C2CC2)c2cc(N3CCNCC3)c(F)cc2c1=O [Ciprofloxacin, ciprofloxacin, reference compound]	0.5 µg/mL (≈ 1.51 µM)	64 µg/mL (≈ 193 µM)	64 µg/mL (≈ 193 µM)	64 µg/mL (≈ 193 µM)	64 µg/mL (≈ 193 µM)	< 0.25 µg/mL	64 µg/mL (≈ 193 µM)	64 µg/mL (≈ 193 µM)	time of exposure at which killing was achieved (complete growth inhibition) (MRSA-1; 32-256 μg/mL): 24 h
COC(=O)CC1COc2c(cc3c4c2CCCN4CCC3)-c2c(NC(C)(C)C)n3c(-c4ccc(OC)cc4)c(-c4ccc(OC)cc4)sc3[n+]21 (centres unmarked) [Compound 1z]	3.12 µg/mL	12.5 µg/mL	6.25 µg/mL	12.5 µg/mL	3.12 µg/mL	1.56 µg/mL	12.5 µg/mL	12.5 µg/mL	antibacterial activity, Staphylococcus aureus [8]: Positive; antibacterial activity, Enterococcus faecalis [9]: Positive; antibacterial activity, Bacillus subtilis [10]: Positive; antibacterial activity, Escherichia coli [11]: Negative; antibacterial activity, Pseudomonas aeruginosa [12]: Negative; MIC [13]: 6.25 µg/mL; MIC [14]: 6.25 µg/mL; MIC [15]: 6.25 µg/mL
